Earlier results, collected in publication PMC9688344, “[^225Ac]Ac-SibuDAB for Targeted Alpha Therapy of Prostate Cancer: Preclinical Evaluation and Comparison with [^225Ac]Ac-PSMA-617” (Cancers, 2022).
Where two headings read alike, the source gives them in different places.

Key:
[1] = cited from earlier work
[2] = molecular target: T1, PSMA (Homo sapiens, UniProt Q04609); conditions: ref Deberle & Benešová et al., Theranostics 2020; cited from earlier work
T1 construct: expressed in transfected cells; host or cells: PC-3 PIP prostate cancer cells (transduced to express PSMA), provided by Prof; Dr. Martin Pomper, Johns Hopkins University
T1 sequence (Q04609 whole entry): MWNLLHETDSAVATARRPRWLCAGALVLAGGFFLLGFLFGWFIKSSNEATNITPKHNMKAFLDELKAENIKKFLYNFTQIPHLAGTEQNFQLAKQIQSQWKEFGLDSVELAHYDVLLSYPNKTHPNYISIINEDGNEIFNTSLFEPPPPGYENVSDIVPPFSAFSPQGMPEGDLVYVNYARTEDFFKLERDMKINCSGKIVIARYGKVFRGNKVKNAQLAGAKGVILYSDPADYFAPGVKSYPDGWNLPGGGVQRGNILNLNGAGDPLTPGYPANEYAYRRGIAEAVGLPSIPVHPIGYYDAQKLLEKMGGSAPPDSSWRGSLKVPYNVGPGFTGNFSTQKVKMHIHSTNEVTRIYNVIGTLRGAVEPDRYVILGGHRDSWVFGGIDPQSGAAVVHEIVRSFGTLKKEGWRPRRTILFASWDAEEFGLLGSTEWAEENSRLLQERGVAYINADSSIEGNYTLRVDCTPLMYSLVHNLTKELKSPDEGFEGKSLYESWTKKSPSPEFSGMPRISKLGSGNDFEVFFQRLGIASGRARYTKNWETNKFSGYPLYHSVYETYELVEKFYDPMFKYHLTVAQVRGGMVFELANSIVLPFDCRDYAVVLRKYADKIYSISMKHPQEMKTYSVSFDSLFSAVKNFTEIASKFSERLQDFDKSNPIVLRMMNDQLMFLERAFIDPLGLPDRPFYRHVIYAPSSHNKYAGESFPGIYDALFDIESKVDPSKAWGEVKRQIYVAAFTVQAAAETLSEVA

[3] = system: PC3-PIP/flu tumor-bearing mice; conditions: ref Benešová et al., Mol Pharm 2018, cited from earlier work
[4] = system: PSMA-positive PC-3 PIP cells; conditions: 4 h incubation; ref Tschan et al., Eur J Nucl Med Mol Imaging 2022; cited from earlier work
[5] = patients; cited from earlier work

O=C([O-])CN1CCN(CC(=O)[O-])CCN(CC(=O)NCC2CCC(C(=O)NC(Cc3ccc4ccccc4c3)C(=O)NCCCCC(NC(=O)NC(CCC(=O)O)C(=O)O)C(=O)O)CC2)CCN(CC(=O)[O-])CC1.[177Lu+3] (stereo not drawn) [[^177Lu]Lu-PSMA-617]
logD value [1]: −4.4 ± 0.2
Kd [2]: 0.013 µM
Blood, accumulated activity ([3]; 1 h p.i.): 0.50 ± 0.06 % IA/g
Bone, accumulated activity ([3]; 1 h p.i.): 0.21 ± 0.04 % IA/g
Heart, accumulated activity ([3]; 1 h p.i.): 0.29 ± 0.03 % IA/g
Intestines, accumulated activity ([3]; 1 h p.i.): 0.24 ± 0.01 % IA/g
Kidneys, accumulated activity ([3]; 1 h p.i.): 9.8 ± 1.4 % IA/g
Liver, accumulated activity ([3]; 1 h p.i.): 0.20 ± 0.04 % IA/g
Lung, accumulated activity ([3]; 1 h p.i.): 0.57 ± 0.07 % IA/g
Muscle, accumulated activity ([3]; 1 h p.i.): 0.25 ± 0.20 % IA/g
PC-3 PIP tumor, accumulated activity ([3]; 1 h p.i.): 44 ± 12 % IA/g
PC-3 flu tumor, accumulated activity ([3]; 1 h p.i.): 0.28 ± 0.04 % IA/g
Salivary glands, accumulated activity ([3]; 1 h p.i.): 0.42 ± 0.30 % IA/g
Spleen, accumulated activity ([3]; 1 h p.i.): 0.63 ± 0.27 % IA/g
Stomach, accumulated activity ([3]; 1 h p.i.): 0.18 ± 0.02 % IA/g
Tumor-to-blood ratio ([3]; 1 h p.i.): 88 ± 13
Tumor-to-kidney ratio ([3]; 1 h p.i.): 4.5 ± 0.7
Tumor-to-liver ratio ([3]; 1 h p.i.): 213 ± 17
Blood, accumulated activity ([3]; 4 h p.i.): ≤ 0.10 % IA/g
Bone, accumulated activity ([3]; 4 h p.i.): ≤ 0.10 % IA/g
Heart, accumulated activity ([3]; 4 h p.i.): ≤ 0.10 % IA/g
Intestines, accumulated activity ([3]; 4 h p.i.): ≤ 0.10 % IA/g
Kidneys, accumulated activity ([3]; 4 h p.i.): 3.7 ± 1.1 % IA/g
Liver, accumulated activity ([3]; 4 h p.i.): ≤ 0.10 % IA/g
Lung, accumulated activity ([3]; 4 h p.i.): ≤ 0.10 % IA/g
Muscle, accumulated activity ([3]; 4 h p.i.): ≤ 0.10 % IA/g
PC-3 PIP tumor, accumulated activity ([3]; 4 h p.i.): 56 ± 8 % IA/g
PC-3 flu tumor, accumulated activity ([3]; 4 h p.i.): ≤ 0.10 % IA/g
Salivary glands, accumulated activity ([3]; 4 h p.i.): ≤ 0.10 % IA/g
Spleen, accumulated activity ([3]; 4 h p.i.): 0.15 ± 0.04 % IA/g
Stomach, accumulated activity ([3]; 4 h p.i.): ≤ 0.10 % IA/g
Tumor-to-blood ratio ([3]; 4 h p.i.): 2315 ± 108
Tumor-to-kidney ratio ([3]; 4 h p.i.): 16 ± 2
Tumor-to-liver ratio ([3]; 4 h p.i.): 598 ± 108
Blood, accumulated activity ([3]; 24 h p.i.): ≤ 0.10 % IA/g
Bone, accumulated activity ([3]; 24 h p.i.): ≤ 0.10 % IA/g
Heart, accumulated activity ([3]; 24 h p.i.): ≤ 0.10 % IA/g
Intestines, accumulated activity ([3]; 24 h p.i.): ≤ 0.10 % IA/g
Kidneys, accumulated activity ([3]; 24 h p.i.): 0.76 ± 0.15 % IA/g
Liver, accumulated activity ([3]; 24 h p.i.): ≤ 0.10 % IA/g
Lung, accumulated activity ([3]; 24 h p.i.): ≤ 0.10 % IA/g
Muscle, accumulated activity ([3]; 24 h p.i.): ≤ 0.10 % IA/g
PC-3 PIP tumor, accumulated activity ([3]; 24 h p.i.): 37 ± 6 % IA/g
PC-3 flu tumor, accumulated activity ([3]; 24 h p.i.): ≤ 0.10 % IA/g
Salivary glands, accumulated activity ([3]; 24 h p.i.): ≤ 0.10 % IA/g
Spleen, accumulated activity ([3]; 24 h p.i.): ≤ 0.10 % IA/g
Stomach, accumulated activity ([3]; 24 h p.i.): ≤ 0.10 % IA/g
Tumor-to-blood ratio ([3]; 24 h p.i.): 2730 ± 195
Tumor-to-kidney ratio ([3]; 24 h p.i.): 50 ± 4
Tumor-to-liver ratio ([3]; 24 h p.i.): 528 ± 51
Blood, accumulated activity ([3]; 48 h p.i.): ≤ 0.10 % IA/g
Bone, accumulated activity ([3]; 48 h p.i.): ≤ 0.10 % IA/g
Heart, accumulated activity ([3]; 48 h p.i.): ≤ 0.10 % IA/g
Intestines, accumulated activity ([3]; 48 h p.i.): ≤ 0.10 % IA/g
Kidneys, accumulated activity ([3]; 48 h p.i.): 0.35 ± 0.05 % IA/g
Liver, accumulated activity ([3]; 48 h p.i.): ≤ 0.10 % IA/g
Lung, accumulated activity ([3]; 48 h p.i.): ≤ 0.10 % IA/g
Muscle, accumulated activity ([3]; 48 h p.i.): ≤ 0.10 % IA/g
PC-3 PIP tumor, accumulated activity ([3]; 48 h p.i.): 28 ± 4 % IA/g
PC-3 flu tumor, accumulated activity ([3]; 48 h p.i.): ≤ 0.10 % IA/g
Salivary glands, accumulated activity ([3]; 48 h p.i.): ≤ 0.10 % IA/g
Spleen, accumulated activity ([3]; 48 h p.i.): ≤ 0.10 % IA/g
Stomach, accumulated activity ([3]; 48 h p.i.): ≤ 0.10 % IA/g
Tumor-to-blood ratio ([3]; 48 h p.i.): 3776 ± 585
Tumor-to-kidney ratio ([3]; 48 h p.i.): 81 ± 11
Tumor-to-liver ratio ([3]; 48 h p.i.): 710 ± 97
Cell uptake [4]: 60 ± 5%
Internalized fraction [4]: 13 ± 2%
salivary gland uptake [5]: 1.41 ± 0.53 Gy/GBq
